From patent US9572862B2, “Methods for promoting lipolysis and oxidation in liver and adipose tissue using catestatin” (The Regents of the University of California, priority 2012, dated 2017)
No end group written: not given here.

Legend:
[1] = Plasma CST level (ELISA) after CST administration; format: in vivo; conditions: WT mice on NCD, CST 5 μg/g BW i.p./day for 12 days
Description: (§1) FIG. 1. Plasma parameters of wild-type (WT) and Chga-KO mice treated with saline or CST. (A) Plasma CST from saline or CST (5 μg/g BW, i.p./day) treated WT mice (28 week old) on normal chow (NCD) and high fat diet (60% fat for 16 weeks) as well as from Chga-KO mice (28 week old) on NCD. Body weights (B) and epididymal fat pad size normalized to body weight (C) in 28 week old WT and Chga-KO mice treated with saline or CST for 12 days. Plasma triglyceride (TG) (D), glycerol (E), non-esterified fatty acids (NEFA) (F), and leptin (G) in 28 week old WT and Chga-KO mice after treatment with saline or CST for 12 days. (H) Leptin in adipocyte culture media after treatment with saline or CST.
Adult male (7 month old) WT (31.8±1.2 g) and Chga-KO (39.2±1.5 g) mice in the mixed genetic background (129SvJ×C57BL/6) were studied. Both genotypes were generated from the original founder carrying mixed genotype (50% 129SvJ, 50% C57BL/6) and were maintained by sibling mating. Animals were kept in a 12 hr dark/light cycle and fed standard chow ad libitum. Male C57BL/6 mice, 8 week old, were fed 60% high fat diet (D12492: Research Diets, Inc., New Brunswick) for 16 weeks before using for experiments. […]
Mice were fasted for 12 hr prior to blood draw. […] Media from the explant cultures and mouse serum were analysed for glycerol and NEFA as a measure of lipolysis. […]

[2] = test system: liver of Chga-KO mice; experiment: Hepatic gene expression by real-time PCR after CST; format: in vivo; conditions: CST 12 days
Description: FIG. 4. Effects of CST on hepatic expression of genes involved in lipogenesis and fatty acid oxidation. Relative mRNA expression of genes involved in fatty acid oxidation in liver of WT and Chga-KO mice after treatment with saline or CST (5 μg/g BW, i.p./day) for 12 days: carnitine palmitoyltransferase 1a (Cpt1α) (A), peroxisome proliferator-activated receptor-alpha (Pparα) (B), acyl-CoA oxidase 1 (Acox1) (C) and uncoupling protein 2 (Ucp2) (D). (E) Relative expression of genes involved in lipogenesis in liver of Chga-KO mice after treatment with saline or CST (5 μg/g BW, i.p./day) for 12 days: sterol regulatory element-binding protein 1 (Srebp-1), peroxisome proliferator-activated receptor-gamma (Pparγ), glycerol-3-phosphate acyltransferase (Gpat4) and Cluster of Differentiation 36 (Cd36).
RNA was extracted using a kit (RNeasy Plus, Qiagen, Valencia, Calif.) according to the manufacturer's specifications. After DNase digestion, 100 ng of RNA was transcribed into cDNA in a 20-μl reaction using a High Capacity cDNA kit (Invitrogen, Carlsbad, Calif.), analyzed, and amplified. PCR was performed in a 25-μl reaction containing 5 μl of cDNA (one-fifth diluted), 2×SYBR Green PCR Master Mix, and the primers described in Table 1 (400 nM each). Differences in cycle threshold values (ΔCt) between target and the housekeeping gene GAPDH were used to calculate the levels of expression.

[3] = Insulin secretion in culture; format: cell-based
[4] = test system: Chga-KO mice; experiment: Chronic CST administration to Chga-KO mice: adiposity, plasma lipids, leptin; format: in vivo
Description: as §1
FIG. 2. Comparison of epididyaml fat pads between saline or CST-treated Chga-KO mice. Adipose tissue was compared after 12 days of treatment with saline (A) or CST (5 μg/g BW, i.p./day) (B). *indicates epididymal fat pad.
Adult male (7 month old) WT (31.8±1.2 g) and Chga-KO (39.2±1.5 g) mice in the mixed genetic background (129SvJ×C57BL/6) were studied. Both genotypes were generated from the original founder carrying mixed genotype (50% 129SvJ, 50% C57BL/6) and were maintained by sibling mating. Animals were kept in a 12 hr dark/light cycle and fed standard chow ad libitum. Male C57BL/6 mice, 8 week old, were fed 60% high fat diet (D12492: Research Diets, Inc., New Brunswick) for 16 weeks before using for experiments. Male leptin-deficient (C57BL/6J-Ob/Ob) mice from the Jackson Laboratory were maintained on a standard chow diet. The Institutional Animal Care and Utilization Committee approved all procedures. Chga-KO, DIO and Ob/Ob mice were treated daily with saline or CST (5 μg/g BW, i.p.; 12 days for Chga-KO mice and 16 days for DIO and Ob/Ob mice).
Mice were fasted for 12 hr prior to blood draw. Triglycerides (TG) and non-esterified fatty acids (NEFA) were assayed using kits from Wako Diagnostics (Richmond, Va.). Glycerol was assayed using a kit from Sigma (St Louis, Mo.). Media from the explant cultures and mouse serum were analysed for glycerol and NEFA as a measure of lipolysis. ELISA kits were used to determine plasma levels of leptin, adiponectin (Millipore, Billerica, Mass.) and CST (Bachem, Torrance, Calif.). For CST assay, plasma samples and reference standards were passed through mini C18 columns and the flow-through fractions were assayed. The same kits were used for measurements in culture media.

[5] = test system: STAT3 and AMPK phosphorylation; experiment: Stat3 and AMPK signaling in adipose explants from Ob/Ob mice; format: cell-based; conditions: CST in vivo, leptin 1 μM ex vivo 30 min
Description: FIG. 9. Stat3 and AMPK signaling in the adipose tissue explants from DIO and Ob/Ob mice treated with saline, CST (in vivo) and leptin (ex vivo). Explants from DIO mice (A&B) and Ob/Ob mice (C&D) were incubated with saline or leptin (1 μM) for 30 min, homogenized and immunoblotted for phospho- and total Stat3 (A&C) as well as phospho- and total AMPK signals (B&D). Results are presented as the ratio of signal strength of phospho-over total.
Adipose tissue explants were prepared as described (42). Epididymal fat pads from 12 hr fasted WT, Chga-KO, DIO and Ob/Ob mice with or without CST treatment were collected in Kreb-Ringer-phosphate (KRP) buffer containing 10 mM Hepes and 0.5% BSA. Tissues were minced to 1-2 mm size and treated with 100 nM CST, 1 μM leptin, or saline for 30 min (for signaling analysis) or 3 hr (for lipolysis and β-oxidation assays). Explants were also treated acutely with CST, leptin, a combination, or saline. At the end, incubation media were saved for analysis of glycerol and fatty acid release. Explants were washed prior to homogenization for immunoblotting and analysis of fatty acid oxidation.
Adipose tissue explants after treatments ex vivo and tissues from mice treated in vivo were homogenized in a buffer containing phosphatase and protease inhibitors (20 mM Tris/HCl (pH 7.5), 250 mM sucrose, 2 mM EDTA, 2 mM EGTA, 2 mM Na3VO4, 10 mM NaF, 2 mM Na4P2O7, 1 mM phenylmethylsulfonyl fluoride, 20 μg/ml leupeptin, 10 μg/ml aprotinin, and 1 μM LR-microcystin) as described (38,44). Homogenates were subjected to SDS-PAGE and immunoblotted. Primary antibodies for AMPK and Stat3 were from Cell Signaling Technology (Beverly, Mass.). The chemiluminescence kit was from Pierce (Rockford, Ill.).

[6] = CST 5 μg/g BW i.p./day for 12 days

## SSMKLSFRARAYGFRGPGPQL [CST]
[1]
  time plasma CST maintained at this level: at least 4 hr
[2]
  liver mRNA expression of Acox: augmented
  liver mRNA expression of Cd36: stimulated
  liver mRNA expression of Cpt1α: augmented
  liver mRNA expression of Gpat4: stimulated
  liver mRNA expression of Pparα: augmented
  liver mRNA expression of Pparγ: no effect
  liver mRNA expression of Srebp-1: no effect
  liver mRNA expression of Ucp2: augmented
[3]
  insulin secretion in culture: Stimulated Insulin Secretion in Culture in a Glucose-Independent Manner
[4]
  food intake: did not increase food intake
[4]; [6]
  body weight: without affecting body weight
  epididymal fat pad size: reduced epididymal fat pad size to WT level
[4]; CST 12 days
  plasma NEFA level: increased
  plasma TG levels: decreased plasma TG levels
  plasma glycerol level: increased
  plasma leptin: lowered plasma leptin to a level below WT
[5]
  STAT3 phosphorylation: CST stimulation of STAT3 phosphorylation
